# Laboratory results published in patent publication US20110142889A1, “COMPOSITIONS AND METHODS FOR ORAL DRUG DELIVERY” (NOD Pharmaceuticals, Inc., priority 2009, published 2011).
# Tests used:
# [1] = colon suppository containing 25 mg sodium caprate; cited from earlier work
# [2] = estimated; cited from earlier work
# blood glucose = assay: effect of oral insulin on blood glucose in somatostatin infused dogs (Example 9); assay type: in vivo, beagle dogs; settings: somatostatin infusion 1 μg/kg/min; FIG. 8B
# Text: Water was supplied ad libitum.
# [3] = dog, in vivo
# Method: The absorption of oral insulin was evaluated in beagles under somatostatin infusion at 1 μg/kg/min via an indwelling vein catheter.
# Twelve beagle dogs with body weights between 8-12 kg were housed in an animal facility. The dogs were randomly divided into three groups and fasted overnight. Water was supplied ad libitum. Somatostatin infusion (1 μg/kg/min) was performed using a balloon infusion pump via an indwelling vein catheter, and tablets were fed with 10 ml water at 4 hr after initiation of somatostatin infusion. Food was restricted during the study, and blood samples were collected at various time points in heparinized tubes.
# Blood glucose concentration was measured with a glucometer and matching testing strips (Johnson & Johnson, OneTouch®), and serum samples of 0.5-0.6 ml were recovered after blood samples were collected and centrifuged at 3000 rpm for 10 min. The samples were frozen at −20° C., and insulin concentration was measured by ELISA (Linco).
molecule,measurement,setting,value
CC1(C)S[C@@H]2[C@H](NC(=O)[C@H](N)c3ccccc3)C(=O)N2[C@H]1C(=O)O [ampicillin],increase of area under the serum concentration-time curve (AUC) compared to ampicillin alone,[1],2.3 fold
same,increase of maximum serum concentration (Cmax) compared to ampicillin alone,[1],2.6 fold
CCCCCCCCCC(=O)[O-].[Na+] [sodium caprate],concentration needed to achieve a permeation enhancing effect,[2],10 to 13 mM
insulin [Insulin injection],effect on blood glucose,blood glucose,rapid and profound reduction of glucose levels
same,effect on serum insulin concentration,[3],large increase in insulin concentration
